These results are taken from patent publication US8618152B2, “Inhibitors of serine proteases, particularly HCV NS3-NS4A proteases” (Vertex Pharmaceuticals Incorporated, priority 2003, dated 2013).

One may read the Ki as the equilibrium dissociation constant of an inhibitor or competing ligand from its target. For orientation: IC50 means the concentration at which inhibition is half-maximal.

Assay [1] has as its target HCV NS3-NS4A protease (tNS3 with KK4A) (Hepatitis C virus genotype 1a, UniProt P27958). Put plainly: HCV Ki assay (HPLC microbore separation of 5AB substrate and products). The assay is classed as biochemical. The protocol:
HPLC Microbore Method for Separation of 5AB Substrate and Products
Substrate: NH2-Glu-Asp-Val-Val-(alpha)Abu-Cys-Ser-Met-Ser-Tyr-COOH
A stock solution of 20 mM 5AB (or concentration of your choice) was made in DMSO w/0.2M DTT. This was stored in aliquots at −20 C.
Buffer: 50 mM HEPES, pH 7.8; 20% glycerol; 100 mM NaCl
Total assay volume was 100 μL
The buffer, KK4A, DTT, and tNS3 were combined; distributed 78 μL each into wells of 96 well plate. This was incubated at 30 C for ˜5-10 min.
2.5 μL of appropriate concentration of test compound was dissolved in DMSO (DMSO only for control) and added to each well. This was incubated at room temperature for 15 min.
Initiated reaction by addition of 20 μL of 250 μM 5AB substrate (25 μM concentration is equivalent or slightly lower than the Km for 5AB).
Incubated for 20 min at 30 C.
Terminated reaction by addition of 25 μL of 10% TFA
Transferred 120 μL aliquots to HPLC vials
Separated SMSY product from substrate and KK4A by the following method:
Microbore Separation Method:
Instrumentation: Agilent 1100
Column thermostated chamber G1316A
Diode array detector G1315A
Solvent A=HPLC grade water+0.1% TFA
Solvent B=HPLC grade acetonitrile+0.1% TFA
Stop time: 17 min Post-run time: 10 min.

The test system of assay [2] is Cells containing hepatitis C virus (HCV) replicon. Put plainly: HCV replicon cell assay. The assay is classed as cell-based. The protocol: HCV Replicon Cell Assay Protocol
Cells containing hepatitis C virus (HCV) replicon were maintained in DMEM containing 10% fetal bovine serum (FBS), 0.25 mg per ml of G418, with appropriate supplements (media A).
On day 1, replicon cell monolayer was treated with a trypsin:EDTA mixture, removed, and then media A was diluted into a final concentration of 100,000 cells per ml with. 10,000 cells in 100 ul were plated into each well of a 96-well tissue culture plate, and cultured overnight in a tissue culture incubator at 37° C.
On day 2, compounds (in 100% DMSO) were serially diluted into DMEM containing 2% FBS, 0.5% DMSO, with appropriate supplements (media B). The final concentration of DMSO was maintained at 0.5% throughout the dilution series.
Media on the replicon cell monolayer was removed, and then media B containing various concentrations of compounds was added. Media B without any compound was added to other wells as no compound controls.
Cells were incubated with compound or 0.5% DMSO in media B for 48 hours in a tissue culture incubator at 37° C. At the end of the 48-hour incubation, the media was removed, and the replicon cell monolayer was washed once with PBS and stored at −80° C. prior to RNA extraction.
Culture plates with treated replicon cell monolayers were thawed, and a fixed amount of another RNA virus, such as Bovine Viral Diarrhea Virus (BVDV) was added to cells in each well. RNA extraction reagents (such as reagents from RNeasy kits) were added to the cells immediately to avoid degradation of RNA. Total RNA was extracted according the instruction of manufacturer with modification to improve extraction efficiency and consistency. Finally, total cellular RNA, including HCV replicon RNA, was eluted and stored at −80° C. until further processing.
A Taqman real-time RT-PCR quantification assay was set up with two sets of specific primers and probe. One was for HCV and the other was for BVDV. Total RNA extractants from treated HCV replicon cells was added to the PCR reactions for quantification of both HCV and BVDV RNA in the same PCR well. Experimental failure was flagged and rejected based on the level of BVDV RNA in each well. The level of HCV RNA in each well was calculated according to a standard curve run in the same PCR plate. The percentage of inhibition or decrease of HCV RNA level due to compound treatment was calculated using the DMSO or no compound control as 0% of inhibition. The IC50 (concentration at which 50% inhibition of HCV RNA level is observed) was calculated from the titration curve of any given compound.

Where [3] appears, read: 25 nM tNS3, 25 μM KK4A, 25 μM 5AB substrate, 20 min at 30 C, read-out: Ki.
The mark [4] stands for this setting: 50% inhibition of HCV RNA level, 48-hour incubation, Taqman real-time RT-PCR, read-out: IC50.

Like-named read-outs stand apart in the source and are kept apart here. *1 amine or outer side, *2 acyl side, *3 side chain or, on linkers, in order; H or OH if unused. Where a SMILES comes first, the peptide text is derived from it. [ ]: non-standard residue; d: D form. The star is where a group is joined. Pro(3S-Et) = CC[C@H]1CCN[C@@H]1C(=O)O; Pyrazinecarbonyl = O=C(c1cnccn1)*; X1 = CCCC(N[*:1])C(=O)C(=O)[*:2]; Chg = N[C@H](C(=O)O)C1CCCCC1; Tle = CC(C)(C)[C@H](N)C(=O)O

Chain of HCV NS3-NS4A protease (tNS3 with KK4A) (P27958 1027-1208): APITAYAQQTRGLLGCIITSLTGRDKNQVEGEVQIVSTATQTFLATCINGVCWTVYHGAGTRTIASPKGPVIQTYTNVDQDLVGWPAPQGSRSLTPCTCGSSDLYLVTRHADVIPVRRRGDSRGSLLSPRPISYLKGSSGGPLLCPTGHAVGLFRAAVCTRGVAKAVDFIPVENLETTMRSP

In the case of `CCC[C@H](NC(=O)[C@@H]1[C@@H](C2CCCC2)CCN1C(=O)[C@@H](NC(=O)[C@@H](NC(=O)c1cnccn1)C1CCCCC1)C(C)(C)C)C(=O)C(=O)NC1CC1` [Compound 75], the Ki in assay [1] (setting [3]) was in the range of 100 to 500 nM. In assay [2] (setting [4]), the IC50 is above 1000 nM.
As to `CCCC(NC(=O)[C@@H]1[C@@H](CC)CCN1C(=O)[C@@H](NC(=O)[C@@H](NC(=O)c1cnccn1)C1CCCCC1)C(C)(C)C)C(=O)C(=O)NC1CC1` (some centres unmarked) [Compound 39], the Ki in assay [1] (setting [3]) is below 100 nM. The IC50 in assay [2] (setting [4]) fell in the range of 500 to 1000 nM.
Turning to `CCC[C@H](NC(=O)[C@@H]1[C@@H](CC)[C@@H](C)CN1C(=O)[C@@H](NC(=O)[C@@H](NC(=O)c1cnccn1)C1CCCCC1)C(C)(C)C)C(=O)C(=O)NC1CC1` [Compound 76], the inhibition constant (Ki) in assay [1] (setting [3]) was in the range of 100 to 500 nM. In addition, the IC50 in assay [2] (setting [4]) is above 1000 nM.
For the molecule `CCCC(NC(=O)[C@@H]1[C@@H](C2CCCCC2)CCN1C(=O)[C@@H](NC(=O)[C@@H](NC(=O)c1cnccn1)C1CCCCC1)C(C)(C)C)C(=O)C(=O)NC1CC1` (some centres unmarked) [Compound 55], the inhibition constant (Ki) in assay [1] (setting [3]) was below 100 nM. Also, the IC50 in assay [2] (setting [4]) is 500 to 1000 nM.
Consider `CCC[C@H](NC(=O)[C@@H]1[C@@H](C(C)(C)C)CCN1C(=O)[C@@H](NC(=O)[C@@H](NC(=O)c1cnccn1)C1CCCCC1)C(C)(C)C)C(=O)C(=O)NC1CC1` [Compound 73], for which the Ki in assay [1] (setting [3]) was in the range of 100 to 500 nM. Besides, the IC50 in assay [2] (setting [4]) is above 1000 nM.
In the case of `CCC[C@H](NC(=O)[C@@H]1[C@@H](C2CCCCC2)CCN1C(=O)[C@@H](NC(=O)[C@@H](NC(=O)c1ccc[nH]1)C1CCCCC1)C(C)(C)C)C(=O)C(=O)NC1CC1` [Compound 72], the Ki in assay [1] (setting [3]) was below 100 nM. Also, in assay [2] (setting [4]), the IC50 was in the range of 500 to 1000 nM.
Regarding `CCC[C@H](NC(=O)[C@@H]1[C@@H](C2CCCCC2)CCN1C(=O)[C@@H](NC(=O)[C@@H](NC(=O)c1cc([N+](=O)[O-])c[nH]1)C1CCCCC1)C(C)(C)C)C(=O)C(=O)NC1CC1` [Compound 71], the Ki in assay [1] (setting [3]) was below 100 nM. The IC50 in assay [2] (setting [4]) was above 1000 nM.
For `CCCC(NC(=O)[C@@H]1[C@@H](CC)CCN1C(=O)[C@@H](NC(=O)[C@@H](NC(=O)c1cnccn1)C1CCCCC1)C(C)(C)C)C(=O)C(=O)N[C@@H](Cc1ccccc1)C(=O)O` (stereo partly drawn) [Compound 41] (Pyrazinecarbonyl-[Chg][Tle][Pro(3S-Et)][X1]F-OH), in assay [1] (setting [3]), the Ki was above 500 nM. The same molecule displayed an IC50 in assay [2] (48 h) below 500 nM.
Regarding `CCCC(NC(=O)[C@@H]1[C@@H](C2CCCCC2)CCN1C(=O)[C@@H](NC(=O)[C@@H](NC(=O)C1CSC(=O)N1)C1CCCCC1)C(C)(C)C)C(=O)C(=O)N[C@@H](C)c1ccccc1` (some centres unmarked) [Compound 63], in assay [1], the Ki was below 100 nM. Further, the concentration for half-maximal inhibition (IC50) in assay [2] (setting [4]) was 500 to 1000 nM.
Consider `CCC[C@H](NC(=O)[C@@H]1[C@@H](C2CCCCC2)CCN1C(=O)[C@@H](NC(=O)[C@@H](NC(=O)c1cnccn1)C1CCCCC1)C(C)(C)C)C(=O)C(=O)N[C@@H](C)C1CCCCC1` [Compound 67], for which the Ki in assay [1] (setting [3]) was above 500 nM. In addition, the IC50 in assay [2] (setting [4]) was above 1000 nM.
`CCCC(NC(=O)[C@@H]1[C@@H](CC)CCN1C(=O)[C@@H](NC(=O)[C@@H](NC(=O)c1cnccn1)C1CCCCC1)C(C)(C)C)C(=O)C(=O)N[C@@H](C)c1ccccc1` (some centres unmarked) [Compound 44]: in assay [1] (setting [3]), the Ki fell in the range of 100 to 500 nM. In assay [2] (setting [4]), the 50% inhibitory concentration (IC50) lay within 500 to 1000 nM.
For `CC[C@H]1CCN(C(=O)[C@@H](NC(=O)[C@@H](NC(=O)c2cnccn2)C2CCCCC2)C(C)(C)C)[C@@H]1C(=O)NC(CC(F)F)C(=O)C(=O)NC1CC1` (some centres unmarked) [Compound 52], in that order: below 100 nM and below 500 nM.
Taken in the same sequence, the figures for `CCCC(NC(=O)[C@@H]1[C@@H](C2CCCCC2)CCN1C(=O)[C@@H](NC(=O)[C@@H](NC(=O)c1cnccn1)C1CCCCC1)C(C)(C)C)C(=O)C(=O)N[C@@H](C)c1ccccc1` (some centres unmarked) [Compound 62] were below 100 nM and 500 to 1000 nM.
On to `CCC[C@H](NC(=O)[C@@H]1[C@@H](C(CC)CC)CCN1C(=O)[C@@H](NC(=O)[C@@H](NC(=O)c1cnccn1)C1CCCCC1)C(C)(C)C)C(=O)C(=O)NC1CC1` [Compound 74], for which the Ki in assay [1] (setting [3]) lay within 100 to 500 nM. In assay [2] (setting [4]), the IC50 is above 1000 nM.
As for `CCC[C@H](NC(=O)[C@@H]1[C@@H](C(C)C)CCN1C(=O)[C@@H](NC(=O)[C@@H](NC(=O)c1ncc[nH]1)C1CCCCC1)C(C)(C)C)C(=O)C(=O)NC1CC1` [Compound 69], the Ki in assay [1] (setting [3]) was below 100 nM. Further, the IC50 in assay [2] (setting [4]) is below 500 nM.
Consider `CCC[C@H](NC(=O)[C@@H]1[C@@H](C2CCCCC2)CCN1C(=O)[C@@H](NC(=O)[C@@H](NC(=O)c1ncc[nH]1)C1CCCCC1)C(C)(C)C)C(=O)C(=O)NC1CC1` [Compound 68], for which, in assay [1] (setting [3]), the Ki is below 100 nM. In addition, the concentration for half-maximal inhibition (IC50) in assay [2] (setting [4]) is below 500 nM.
`CCC[C@H](NC(=O)[C@@H]1[C@@H](C(C)C)CCN1C(=O)[C@@H](NC(=O)[C@@H](NC(=O)c1cnccn1)C1CCCCC1)C(C)C)C(=O)C(=O)NC1CC1` [Compound 64]: the Ki in assay [1] (setting [3]) was in the range of 100 to 500 nM. This molecule came in with an IC50 in assay [2] (48 h) above 1000 nM.
`CCCC(NC(=O)[C@@H]1[C@@H](C2CCCCC2)CCN1C(=O)[C@@H](NC(=O)[C@@H](NC(=O)c1cnccn1)C1CCCCC1)C(C)C)C(=O)C(=O)NC1CC1` (some centres unmarked) [Compound 54]: the Ki in assay [1] (setting [3]) fell in the range of 100 to 500 nM. Further, the IC50 in assay [2] (48 h) is above 1000 nM.
For `CCC[C@H](NC(=O)[C@@H]1[C@@H](C2CCCCC2)CCN1C(=O)[C@@H](NC(=O)[C@@H](NC(=O)c1cnccn1)C1CCCCC1)C(C)(C)C)C(=O)C(=O)NC1CC1` [Compound 66], the Ki in assay [1] (setting [3]) is 100 to 500 nM. In assay [2] (setting [4]), the half-inhibitory concentration (IC50) was in the range of 500 to 1000 nM.
